Patent US20250270617A1, “Compound - diagnostic marker for kidney cancer, method for detecting enzymatic activity, method for diagnosis of kidney cancer, kit comprising the compound, uses of the compound and method for the treatment of kidney cancer” (URTESTE S.A., priority 2022, published 2025)
Values joined by “and” are separate entries in the source; they are usually repeats but may differ in a detail not shown here. Identical values can stand only once. Numbered stars: 1 amine (or outer) side, 2 acyl side, 3 side chain; on linkers, the order of the positions; unused ones are H or OH. Square brackets hold non-standard residues; d marks the D form. Ends that are not written are not given here. Benzoyl(5-NH,2-NO2) = O=C(c1cc(N[*:1])ccc1[N+](=O)[O-])[*:2]; 2Abz = Nc1ccccc1C(=O)O

Key:
Type in all cases: biochemical, human
[1] = system: proteolytic enzymes specific/characteristic of kidney cancer in urine; assay: Absorbance measurement of substrate hydrolysis in individual urine samples (kidney cancer and healthy subjects); details: for Results of absorbance analysis (rate of hydrolysis of the substrate): 405 nm, 37° C., 60 minutes, pH 8.0, triplicate
Procedure: (§1) The activity of the novel compounds according to the invention was studied in a group of 20 subjects diagnosed with kidney cancer using the representative compound according to the invention. […] The remaining compounds according to the invention are characterized by the analogous mechanism of action. For this purpose, the representative compound according to the invention, ABZ^1-Leu^2-Pro^3-Gly^4-Thr^5-ANB^6—NH2, was dissolved in dimethyl sulfoxide (at a concentration of 0.5 mg/mL) and then 50 μL of the solution was mixed with 120 μL of a buffer (200 mM Tris-HCl, pH 8.0) and 80 μL of urine from a subject suffering from kidney cancer. The measurement was performed on a 96-well plate designed for measuring absorbance and each sample was analysed in triplicate at the temperature of 37° C. The duration of the measurement was 60 minutes. During the measurement, the wavelength characteristic for the chromophore (ANB-NH2) being released was monitored at the wavelength 405 nm (range 380-430 nm).
The observed magnitude of increase in absorbance in time is different for each of the examined samples.
Such a result may be due to the difference in the activity as well as the amount of enzymes responsible for the enzymatic cleavage (proteolysis). […] The result indicates the absence of proteolytic enzymes specific/characteristic of kidney cancer.

[2] = system: proteolytic enzymes in urine from patients with different cancers; assay: Selectivity of substrate cleavage in urine samples by cancer type; details: testicular, prostate, pancreatic, biliary duct, lung, ovary, rectum cancer; mixture of 20 samples each; FIG. 3
From the text: Arabic numerals indicate the numbers of given cancer types. The samples tested for each type of cancer were derived from 20 different patients for each of the tested cancers. The results are mean values for given cancer types.
as §1
Furthermore, the dependence of the cleavage selectivity of the substrate, i.e. the compound according to the invention, on the cancer type being examined, was studied. […]

[3] = system: proteolytic enzymes in urine from a person diagnosed with kidney cancer; assay: RP HPLC analysis of substrate cleavage in urine from a person with kidney cancer; details: randomly selected urine from a person diagnosed with kidney cancer; FIG. 1
[4] = system: proteolytic enzymes in urine; assay: Dependence of substrate hydrolysis on reaction pH; details: FIG. 4
Procedure: Furthermore, measurements concerning the dependence of the proteolytic activity of the representative compound according to the invention on the reaction pH were performed.

[5] = system: proteolytic enzymes specific/characteristic of kidney cancer in urine; assay: Absorbance measurement of substrate hydrolysis in individual urine samples (kidney cancer and healthy subjects)

ABZ-Leu-Pro-Gly-Thr-ANB-NH2 ([2Abz]LPGT-{Benzoyl(5-NH,2-NO2)-NH2}) [chromogenic/fluorogenic peptide; ABZ is 2-aminobenzoic acid, ANB-NH2 is amide of 5-amino-2-nitrobenzoic acid]
Cleavage of the substrate in urine samples from persons suffering from kidney cancer ([1]; all samples N1-N20): underwent cleavage
Efficiency of substrate cleavage in samples N3 and N6 ([1]; compared with samples N5 or N20, FIG. 2, Table 1): less efficiently
Results of absorbance analysis (rate of hydrolysis of the substrate) ([1]; urine sample 21, healthy subject): 0.000000
Results of absorbance analysis (rate of hydrolysis of the substrate) ([1]; urine sample 22, healthy subject): 0.000000
Results of absorbance analysis (rate of hydrolysis of the substrate) ([1]; urine sample 23, healthy subject): 0.000000
Results of absorbance analysis (rate of hydrolysis of the substrate) ([1]; urine sample 24, healthy subject): 0.000000
Results of absorbance analysis (rate of hydrolysis of the substrate) ([1]; urine sample 25, healthy subject): 0.000000
Results of absorbance analysis (rate of hydrolysis of the substrate) ([1]; urine sample 26, healthy subject): 0.000000
Results of absorbance analysis (rate of hydrolysis of the substrate) ([1]; urine sample 27, healthy subject): 0.000000
Results of absorbance analysis (rate of hydrolysis of the substrate) ([1]; urine sample 28, healthy subject): 0.000000
Results of absorbance analysis (rate of hydrolysis of the substrate) ([1]; urine sample 29, healthy subject): 0.000000
Results of absorbance analysis (rate of hydrolysis of the substrate) ([1]; urine sample 30, healthy subject): 0.000000
Results of absorbance analysis (rate of hydrolysis of the substrate) ([1]; urine sample 31, healthy subject): 0.000000
Results of absorbance analysis (rate of hydrolysis of the substrate) ([1]; urine sample 32, healthy subject): 0.000000
Results of absorbance analysis (rate of hydrolysis of the substrate) ([1]; urine sample 33, healthy subject): 0.000000
Results of absorbance analysis (rate of hydrolysis of the substrate) ([1]; urine sample 34, healthy subject): 0.000000
Results of absorbance analysis (rate of hydrolysis of the substrate) ([1]; urine sample 36, healthy subject): 0.000000
Results of absorbance analysis (rate of hydrolysis of the substrate) ([1]; urine sample 37, healthy subject): 0.000000
Results of absorbance analysis (rate of hydrolysis of the substrate) ([1]; urine sample 38, healthy subject): 0.000000
Results of absorbance analysis (rate of hydrolysis of the substrate) ([1]; urine sample 39, healthy subject): 0.000000
Results of absorbance analysis (rate of hydrolysis of the substrate) ([1]; urine sample 40, healthy subject): 0.000000
Results of absorbance analysis (rate of hydrolysis of the substrate) ([1]; urine sample N1, subject with kidney cancer): 0.027 and 0.019 and 0.023
Results of absorbance analysis (rate of hydrolysis of the substrate) ([1]; urine sample N2, subject with kidney cancer): 0.021 and 0.014 and 0.019
Results of absorbance analysis (rate of hydrolysis of the substrate) ([1]; urine sample N4, subject with kidney cancer): 0.032 and 0.029 and 0.03
Results of absorbance analysis (rate of hydrolysis of the substrate) ([1]; urine sample N5, subject with kidney cancer): 0.034 and 0.032 and 0.029
Results of absorbance analysis (rate of hydrolysis of the substrate) ([1]; urine sample N6, subject with kidney cancer): 0.0033 and 0.0027 and 0.003
Results of absorbance analysis (rate of hydrolysis of the substrate) ([1]; urine sample N7, subject with kidney cancer): 0.02 and 0.021 and 0.018
Results of absorbance analysis (rate of hydrolysis of the substrate) ([1]; urine sample N9, subject with kidney cancer): 0.031 and 0.03 and 0.035
Results of absorbance analysis (rate of hydrolysis of the substrate) ([1]; urine sample N10, subject with kidney cancer): 0.0026 and 0.0037 and 0.0031
Results of absorbance analysis (rate of hydrolysis of the substrate) ([1]; urine sample N11, subject with kidney cancer): 0.012 and 0.01 and 0.015
Results of absorbance analysis (rate of hydrolysis of the substrate) ([1]; urine sample N12, subject with kidney cancer): 0.0098 and 0.0111 and 0.012
Results of absorbance analysis (rate of hydrolysis of the substrate) ([1]; urine sample N13, subject with kidney cancer): 0.004 and 0.0051 and 0.0045
Results of absorbance analysis (rate of hydrolysis of the substrate) ([1]; urine sample N14, subject with kidney cancer): 0.0036 and 0.0033 and 0.0032
Results of absorbance analysis (rate of hydrolysis of the substrate) ([1]; urine sample N15, subject with kidney cancer): 0.0043 and 0.0037 and 0.004
Results of absorbance analysis (rate of hydrolysis of the substrate) ([1]; urine sample N16, subject with kidney cancer): 0.0039 and 0.0037 and 0.0035
Results of absorbance analysis (rate of hydrolysis of the substrate) ([1]; urine sample N17, subject with kidney cancer): 0.013 and 0.0135 and 0.0136
Results of absorbance analysis (rate of hydrolysis of the substrate) ([1]; urine sample N18, subject with kidney cancer): 0.004 and 0.0032 and 0.0038
Results of absorbance analysis (rate of hydrolysis of the substrate) ([1]; urine sample N19, subject with kidney cancer): 0.0038 and 0.004 and 0.0037
Results of absorbance analysis (rate of hydrolysis of the substrate) ([1]; urine sample N20, subject with kidney cancer): 0.031 and 0.026
Cleavage of the substrate in samples from patients with other cancers [2]: is not subject to cleavage
Cleavage products by RP HPLC analysis [3]: cleaves into the peptide fragment ABZ-Leu-Pro-Gly-Thr-OH and the chromophore group of the compound (ANB-NH2)
Dependence of the hydrolysis level of the substrate on pH [4]: maximum activity at alkaline pH
Increase in absorbance / hydrolysis in urine samples from healthy persons ([5]; samples 21 to 40, without a cancer diagnosis): does not lead to an increase in absorbance
Results of absorbance analysis (rate of hydrolysis of the substrate) ([5]; urine sample 35, healthy subject, 405 nm, 37° C., 60 minutes, pH 8.0, triplicate): 0.000000
